Results on four compounds are retold here after patent publication US6124327A, “HIV integrase inhibitors” (Merck & Co., Inc., priority 1998, dated 2000).

One assay concerns the target T1, HIV integrase (Human immunodeficiency virus type 1 group M subtype B, UniProt P04585).
T1 construct: HIV integrase
The assay can be described thus: Strand Transfer Assay for HIV Integrase (microtiter assay, processed donor (HIV) DNA to nonspecific, nicked target DNA). The format is biochemical. The note with it: inhibitor at various concentrations in the range of 1 to 100 μM. Here is the method: Strand Transfer Assay for HIV Integrase
A microtiter assay for strand transfer of processed donor (HIV) DNA to nonspecific, nicked target DNA was conducted according to Wolfe, et al., J. Virol., 70, 1424 (1996), herein incorporated by reference for these purposes. To assay inhibition of such strand transfer by HIV integrase, the reaction was conducted with inhibitor having various concentrations in the range of 1 to 100 μM.

The target in the next assay is T2, HIV-1 integrase (Human immunodeficiency virus type 1 group M subtype B, UniProt P04585).
T2 construct: HIV-1 integrase
The assay can be described thus: HIV Integrase Substrate Cleavage (endonucleolytic processing and joining of the 3' end of HIV long terminal repeat terminus; coupled reaction). The format is biochemical. Conditions: inhibitor at various concentrations in the range of 1 to 100 μM. As for the experimental part: HIV Integrase Substrate Cleavage
As assay for endonucleolytic processing and joining of the 3' end of HIV long terminal repeat terminus by HIV-1 integrase was conducted according to Hazuda, et al., Nud. Acids Res., 22, 1121 (1994), herein incorporated by reference for these purposes. To assay inhibition of the coupled reaction, the assay was conducted with inhibitor having various concentrations in the range of 1 to 100 μM.

The pIC50 is −log10 of the IC50, conventionally taken in molar units. A high value points to a small IC50.

pIC50: −log10 of the molar value. A value given as a limit tells only on which side of the number the result lay.

In the case of `CCCC(CCCCCCCc1cc(O)cc(O)c1C(=O)OC(CCC)CCCCCCCc1cc(O)cc(O)c1)OC(C)=O` (centres unmarked) [Compound A], the pIC50 at HIV integrase was 4.49; against HIV-1 integrase it was 5.49.

`CCCC(O)CCCCCCCc1cc(O)cc(O)c1C(=O)OC(CCC)CCCCCCCc1cc(O)cc(O)c1` (centres unmarked) [Compound B]: the pIC50 is 4.77 against HIV integrase and 5.21 at HIV-1 integrase.

With `CCC/C=C/CCCCCCc1cc(O)cc(O)c1C(=O)OC(CCC)CCCCCCCc1cc(O)cc(O)c1` (centres unmarked) [Compound C], the pIC50 against HIV integrase was < 4.06; on HIV-1 integrase, 5.46.

As to `CCCC(O)CCCCCCCc1cc(O)cc(O)c1` (centres unmarked) [Compound D], the negative logarithm of the IC50 (pIC50) on HIV integrase is < 4.00; against HIV-1 integrase, 4.03.
